The target of series [1] is AMPA receptors. The experiment in a line: AMPA receptor binding (Honore et al.), Table 1.
The target in series [2] is kainate site (non-NMDA receptor). The experiment in a line: Kainate site (non-NMDA receptor) binding (London and Coyle), Table 1 'KA'.
Series [3] concerns CF-1 strain mice. The experiment in a line: maximal electroshock (MES) assay in mice. The class given is in vivo. The following applies: IV. From the text:
Additionally, a preliminary indicator of in vivo CNS activity related to anticonvulsant activity and potential neuroprotection, is a maximal electroshock (MES) assay in CF-1 strain mice (20-25 g) performed with corneal electrodes by conventional methods as described previously (Krall, et al., Epilepsia, 1988;19:409-428).
MES (IV) Data for Compound 1 from Table 1 [drawing 23]

The structures appear in SMILES notation.

`Cc1c([N+](=O)[O-])cc2[nH]c(=O)c(=O)[nH]c2c1CN(C)C` [Compound 1] had an IC50 in series [1] of 1.5 µM. Further, in series [2], the “IC50 KA” value is 4.483 µM. The “Ataxic (%)” value was 0% in series [3] (3 min, 10 mg/kg); 20% in series [3] (3 min, 30 mg/kg); 40% in series [3] (30 min, 10 mg/kg); 40% in series [3] (30 min, 30 mg/kg). For the same compound, the “Protected (%)” value in series [3] (3 min, 10 mg/kg) was found to be 40%; in series [3] (3 min, 30 mg/kg), 60%; in series [3] (30 min, 10 mg/kg), 60%; in series [3] (30 min, 30 mg/kg) it was 80%.

`CCCN(CCC)Cc1c(C)c([N+](=O)[O-])cc2[nH]c(=O)c(=O)[nH]c12` [Compound 3]: the 50% inhibitory concentration (IC50) in series [1] was 1.63 µM. The “IC50 KA” value in series [2] was found to be 24.93 µM.

In turn, `CCN(CC)Cc1c(C)c([N+](=O)[O-])cc2[nH]c(=O)c(=O)[nH]c12` [Compound 2] showed a 50% inhibitory concentration (IC50) in series [1] of 0.689 µM. Also, the “IC50 KA” value in series [2] came out at 6.647 µM.

`Cc1c([N+](=O)[O-])cc2[nH]c(=O)c(=O)[nH]c2c1CN(C)C(C)C` [Compound 7] gave an IC50 in series [1] of 1.15 µM. In series [2], the “IC50 KA” value stood at 8.23 µM.

In series [1], `CCCCN(CCCC)Cc1c(C)c([N+](=O)[O-])cc2[nH]c(=O)c(=O)[nH]c12` [Compound 4] gave a 50% inhibitory concentration (IC50) of 4.64 µM. Further, the “IC50 KA” value in series [2] came out at 20.50 µM.

`Cc1c([N+](=O)[O-])cc2[nH]c(=O)c(=O)[nH]c2c1CN(C)C1CCCCC1` [Compound 6] displayed an IC50 in series [1] of 3.23 µM. For the same compound, the “IC50 KA” value in series [2] amounted to 5.331 µM.

In series [1], `Cc1c([N+](=O)[O-])cc2[nH]c(=O)c(=O)[nH]c2c1CNC1CCCCC1` [Compound 5] yielded an IC50 of 1.26 µM. The “IC50 KA” value in series [2] amounted to 5.128 µM.
